The text below walks through data of patent US5030449A, “Synthetic vaccine against AIDS virus” (The United States of America as represented by the …, priority 1988, dated 1991).

The test system of this experiment is HIV envelope-immune murine T cells (lymph node cells of gp160-immunized mice). As to the kind of experiment: Lymph node T-cell proliferation assay ([3H]thymidine incorporation, stimulation index). Type of experiment: cell-based, mouse. Conditions: for S.I. (stimulation index, experimental cpm/control cpm): peptide 2 μM. The source says:
B10.BR/SgSn (H-2^k) and B10.D2/nSn (H-2^d) mice were obtained from the Jackson Laboratories (Bar Harbor, Me.). B10.S(9R)/Sg (H-2^t4) and B10.A(5R)/SgSn (H-2^i5) mice were bred at the NIH breeding colony from breeding pairs obtained from D. J. Stimpfling (Great Falls, Mont.) and from Jackson Laboratories. Mice from the strain B10.S(9R) and B10.A(5R) were chosen because both I-A and I-E molecules of the H-2^s and H-2^b haplotypes are expressed in these recombinant strains, whereas I-E is not expressed in nonrecombinant H-2^b and H-2^s mice.
Mice were immunized s.c. with 10-30 ug of recombinant gp160 1:1 in complete Freund's adjuvant (CFA) at the base of the tail. (The dose was determined according to the purity of the gp160 preparation.) Eight to ten days later, periaortic and inguinal lymph nodes were removed and prepared in a single-cell suspension in complete T-cell medium in accordance with the method of Berkower et al, 1984, J. Immunol., 132:1370. Lymph node cells at 4×10^5 cells per well were added to each well of flat-bottomed 96-well microtiter plates (Costar, Cambridge, Mass.). The 44 peptides were added to the wells to make a final volume of 0.2 ml of medium, and each peptide was tested in triplicate. On the fourth day of culture, 1 uCi of [^3 H]thymidine (6.7 Ci/mmol; New England Nuclear, Boston, Mass.) was added to each well. Eighteen hours later, […] incorporation into DNA, as a measure of proliferation, was determined using liquid scintillation counting. The stimulation index represents a ratio of experimental counts over background counts without antigen.
Mice of the H-2^k, H-2^d, H-^i5, and H-2^t4 haplotypes were immunized s.c. in the tail with recombinant gp160 in CFA at a dose of 20-30 ug per mouse. Eight to ten days later the mice were sacrificed, the periaortic and inguinal lymph nodes were isolated, and proliferation of lymph node cells in the presence or absence of antigen was determined as described herein supra.
Background: Uptake of a labelled nucleoside into DNA is a usual measure of proliferation.

“WDQSLKPCVKLTPLCV [HP-8, residues 119-134 of HIV envelope]”: the “S.I. (stimulation index, experimental cpm/control cpm)” value is reported as 1.51 (B10.A(5R) H-2^i5 mice), 2.24 (B10.BR H-2^k mice), 1.68 (B10.D2 H-2^d mice) and 1.23 (B10.S(9R) H-2^t4 mice). Also, under “H-2^k mice, initial screening”, the “T-cell proliferative response (in words)” value is reported as “diminishing response”.
